Test results published in patent publication US12497666B2, “Nucleic acid biomarker and use thereof” (Daiichi Sankyo Co., Ltd., priority 2013, dated 2025).
Read-outs that look alike come from different tables or passages of the source.

What was measured:
[1] = test system: Stage IIIb/IV NSCLC
Experimental: (§1) In both portions of the study, subjects received 150 mg of erlotinib orally once daily. […] Tumors were to be assessed every 6 weeks (±3 days) up to the first 24 weeks of the study, then every 12 weeks (+7 days) independent of treatment cycle.
Subjects were also administered 150 mg/day erlotinib during the phase 2 trial.

[2] = test system: Stage IIIb/IV NSCLC; conditions: for On-Study Death / Primary Cause of On-Study Death: Adverse Event / Primary Cause of On-Study Death: Disease Progression / Primary Reason for Discontinuing Study Treatment: Death / Primary Reason for Discontinuing Study Treatment: Progressive Disease (Radiographic Progression): Enrolled/Randomized set; for disease control rate / objective response (CR or PR): HRG high
Experimental: as §1
All efficacy analyses were performed on the full analysis set, which includes all subjects in the randomized analysis set who received at least one dose of randomized study medication. The primary efficacy endpoint was PFS. PFS is defined as the time from the date of randomization to the earlier of the dates of the first objective documentation of radiographic disease progression or death due to any cause. A subject who was alive with no Objective documentation of (radiographic) disease progression by the data cut-off date was to be censored at the date of the last evaluable tumor assessment. The key secondary efficacy endpoint, overall survival, was defined as the time from the date of randomization to death due to any cause and was analyzed in the same manner as the primary efficacy endpoint PFS.
Kaplan-Meier curves were generated for PFS and used to calculate medians and 95% CIs for each treatment group. […] Cox's proportional hazards model.
The stratification factors included histology (Adenocarcinoma vs Non-Adenocarcinoma) and best response to prior therapy (CR/PR/SD vs PD).
Unless otherwise indicated, log-rank p-values and HRs for PFS and OS were based on the primary analysis adjusted for the stratification factors at randomization as described above.

[3] = 18 mg/kg patritumab + erlotinib
[4] = Full Analysis Set, 9 mg/kg patritumab + erlotinib
[5] = Full Analysis Set, 18 mg/kg patritumab + erlotinib
[6] = Full Analysis Set, Kaplan-Meier, 9 mg/kg patritumab + erlotinib
[7] = Full Analysis Set, Kaplan-Meier, 18 mg/kg patritumab + erlotinib
[8] = HRG high (dCt<3.9), 9 mg/kg patritumab + erlotinib
[9] = HRG high (dCt<3.9), 18 mg/kg patritumab + erlotinib
[10] = HRG high (dCt<3.9), patritumab doses combined + erlotinib
[11] = HRG high and EGFR wild type, 9 mg/kg patritumab + erlotinib
[12] = HRG high and EGFR wild type, 18 mg/kg patritumab + erlotinib
[13] = HRG high and EGFR wild type, patritumab doses combined + erlotinib
[14] = HRG low, 9 mg/kg patritumab + erlotinib
[15] = HRG low, 18 mg/kg patritumab + erlotinib
[16] = HRG low, patritumab doses combined + erlotinib

## patritumab + erlotinib: combination of 150 mg erlotinib daily and anti-HER3 antibody patritumab IV every 3 weeks (18 mg/kg, or 18 mg/kg loading with 9 mg/kg maintenance)
[1]; Phase 1b, 7 subjects
  response: No response was recorded
[1]; in vivo
  grade of reported AEs: Most reported AEs were grade 1 or 2
  patritumab-related AE: decreased appetite: 2 subjects
  serious AEs: Three subjects had four serious AEs
[2]; Cut-off for delta Ct 2.7 (first quartile)
  HR (pooled dose vs placebo) for PFS in the HRG high group: 0.180
[2]; Cut-off for delta Ct 3.0
  HR (pooled dose vs placebo) for PFS in the HRG high group: 0.177
[2]; Cut-off for delta Ct 3.5
  HR (pooled dose vs placebo) for PFS in the HRG high group: 0.283
[2]; Cut-off for delta Ct 3.9 (median)
  HR (pooled dose vs placebo) for PFS in the HRG high group: 0.324
[2]; Cut-off for delta Ct 4.5
  HR (pooled dose vs placebo) for PFS in the HRG high group: 0.490
[2]; Cut-off for delta Ct 5.0 (third quartile)
  HR (pooled dose vs placebo) for PFS in the HRG high group: 0.561
[2]; 9 mg/kg patritumab + erlotinib
  On-Study Death: 9 (12.5%) subjects (%)
  Primary Cause of On-Study Death: Adverse Event: 4 (5.6%) subjects (%)
  Primary Cause of On-Study Death: Disease Progression: 4 (5.6%) subjects (%)
  Primary Reason for Discontinuing Study Treatment: Death: 2 (2.8%) subjects (%)
  Primary Reason for Discontinuing Study Treatment: Progressive Disease (Radiographic Progression): 45 (62.5%) subjects (%)
[2]; [3]
  On-Study Death: 20 (27.8%) subjects (%)
  Primary Cause of On-Study Death: Adverse Event: 11 (15.3%) subjects (%)
  Primary Cause of On-Study Death: Disease Progression: 8 (11.1%) subjects (%)
  Primary Reason for Discontinuing Study Treatment: Death: 11 (15.3%) subjects (%)
  Primary Reason for Discontinuing Study Treatment: Progressive Disease (Radiographic Progression): 42 (58.3%) subjects (%)
[2]; [4]
  Subjects (%) with events, OS: 46 (64.8%) subjects (%)
  Subjects (%) with events, PFS: 52 (73.2%) subjects (%)
[2]; [5]
  Subjects (%) with events, OS: 54 (77.1%) subjects (%)
  Subjects (%) with events, PFS: 58 (82.9%) subjects (%)
[2]; [6]
  Overall Survival, time to event, Median: 6.3 months
  Progression-Free Survival, time to event, Median: 2.5 months
[2]; [7]
  Overall Survival, time to event, Median: 5.3 months
  Progression-Free Survival, time to event, Median: 1.4 months
[2]; Full Analysis Set, high-dose patritumab + erlotinib
  number of subjects with the response being CP/PR: 5 (7.1%) subjects (%)
[2]; Full Analysis Set, low-dose patritumab + erlotinib
  number of subjects with the response being CP/PR: 9 (12.9%) subjects (%)
[2]; [8]
  OS Rate at 1 Year (%): 49.2%
  OS Rate at 6 Months (%): 68.8%
  OS Rate at 9 Months (%): 56.3%
  PFS Rate at 8 Weeks (%): 67.7%
  PFS Rate at 14 Weeks (%): 33.9%
  PFS Rate at 26 Weeks (%): 20.3%
  Progression-Free Survival, time to event, Median: 3.0 months
  Subjects (%) with events, OS: 9 (56.3%) subjects (%)
  Subjects (%) with events, PFS: 12 (75.0%) subjects (%)
[2]; [9]
  OS Rate at 1 Year (%): 22.2%
  OS Rate at 6 Months (%): 50.7%
  OS Rate at 9 Months (%): 44.3%
  PFS Rate at 8 Weeks (%): 56.3%
  PFS Rate at 14 Weeks (%): 50.0%
  PFS Rate at 26 Weeks (%): 15.6%
  Progression-Free Survival, time to event, Median: 3.4 months
  Subjects (%) with events, OS: 12 (70.6%) subjects (%)
  Subjects (%) with events, PFS: 13 (76.5%) subjects (%)
[2]; [10]
  OS Rate at 1 Year (%): 35.8%
  OS Rate at 6 Months (%): 59.6%
  OS Rate at 9 Months (%): 50.2%
  PFS Rate at 8 Weeks (%): 62.1%
  PFS Rate at 14 Weeks (%): 42.5%
  PFS Rate at 26 Weeks (%): 18.4%
  Progression-Free Survival, time to event, Median: 3.0 months
  Subjects (%) with events, OS: 21 (63.6%) subjects (%)
  Subjects (%) with events, PFS: 25 (75.8%) subjects (%)
[2]; HRG high (dCt<3.9), preliminary, 9 mg/kg patritumab + erlotinib
  Overall Survival, time to event, Median: 10.6 months
[2]; HRG high (dCt<3.9), preliminary, 18 mg/kg patritumab + erlotinib
  Overall Survival, time to event, Median: 6.1 months
[2]; HRG high (dCt<3.9), preliminary, patritumab doses combined + erlotinib
  Overall Survival, time to event, Median: 9.7 months
[2]; [11]
  Progression-Free Survival, time to event, Median: 2.8 months
  Subjects (%) with events, PFS: 6 ( 85.7%) subjects (%)
[2]; [12]
  Progression-Free Survival, time to event, Median: 2.8 months
  Subjects (%) with events, PFS: 5 (100.0%) subjects (%)
[2]; [13]
  Progression-Free Survival, time to event, Median: 2.8 months
  Subjects (%) with events, PFS: 11 (91.7%) subjects (%)
[2]; 9 mg/kg patritumab plus erlotinib
  disease control rate: 62.5%
[2]; 18 mg/kg patritumab plus erlotinib
  disease control rate: 52.9%
[2]; high-dose patritumab + erlotinib
  objective response (CR or PR): No subject
[2]; low-dose patritumab + erlotinib
  objective response (CR or PR): 4 (25.0%) subjects (%)
[2]; [14]
  Overall Survival, time to event, Median: 6.3 months
  Progression-Free Survival, time to event, Median: 2.1 months
  Subjects (%) with events, OS: 10 ( 66.7%) subjects (%)
  Subjects (%) with events, PFS: 12 ( 80.0%) subjects (%)
[2]; [15]
  Overall Survival, time to event, Median: 9.6 months
  Progression-Free Survival, time to event, Median: 1.4 months
  Subjects (%) with events, OS: 12 ( 63.2%) subjects (%)
  Subjects (%) with events, PFS: 13 ( 68.4%) subjects (%)
[2]; [16]
  Overall Survival, time to event, Median: 9.3 months
  Progression-Free Survival, time to event, Median: 1.9 months
  Subjects (%) with events, OS: 22 ( 64.7%) subjects (%)
  Subjects (%) with events, PFS: 25 ( 73.5%) subjects (%)
[2]; full analysis set
  improvement in PFS or OS as compared to erlotinib plus placebo: no significant improvement in PFS or OS
[2]; subjects with tumors expressing low levels of HRG (dCt>3.9)
  treatment difference in PFS and OS: no clear treatment difference in PFS and OS
